Patent US10047098B2, “C5-C6-oxacyclic fused iminopyrimidinone compounds as bace inhibitors, compositions, and their use” (Merck Sharp & Dohme Corp., priority 2014, dated 2018)

Columns and labels:
[1] = molecular target: Recombinant human soluble BACE1 catalytic domain (Homo sapiens (Human), UniProt P56817); test: BACE1 HTRF FRET Assay; format: biochemical; conditions: Ki calculated from IC50 using the Cheng-Prusoff equation; QSY7-APPswe-Eu substrate, pH 5.0; read-out: BACE-1 Ki
From the text: Reagents: Na^+-Acetate pH 5.0; 1% Brij-35; Glycerol; Dimethyl Sulfoxide (DMSO); Recombinant human soluble BACE1 catalytic domain (>95% pure); APP Swedish mutant peptide substrate (QSY7-APP^swe-Eu): QSY7-EISEVNLDAEFC-Europium-amide.
A homogeneous time-resolved FRET assay can be used to determine IC50 values for inhibitors of the soluble human BACE1 catalytic domain. This assay monitors the increase of 620 nm fluorescence that resulted from BACE1 cleavage of an APPswedish APP^swe mutant peptide FRET substrate (QSY7-EISEVNLDAEFC-Europium-amide). This substrate contains an N-terminal QSY7 moiety that serves as a quencher of the C-terminal Europium fluorophore (620 nm Em). In the absence of enzyme activity, 620 nm fluorescence is low in the assay and increased linearly over 3 hours in the presence of uninhibited BACE1 enzyme. Inhibition of BACE1 cleavage of the QSY7-APP^swe-Eu substrate by inhibitors is manifested as a suppression of 620 nm fluorescence.
Varying concentrations of inhibitors at 3× the final desired concentration in a volume of 10 ul are preincubated with purified human BACE1 catalytic domain (3 nM in 10 μl) for 30 minutes at 30° C. in reaction buffer containing 20 mM Na-Acetate pH 5.0, 10% glycerol, 0.1% Brij-35 and 7.5% DSMO. Reactions are initiated by addition of 10 μl of 600 nM QSY7-APP^swe-Eu substrate (200 nM final) to give a final reaction volume of 30 μl in a 384 well Nunc HTRF plate. The reactions are incubated at 30° C. for 1.5 hours. The 620 nm fluorescence is then read on a Rubystar HTRF plate reader (BMG Labtechnologies) using a 50 millisecond delay followed by a 400 millisecond acquisition time window. Inhibitor IC50 values are derived from non-linear regression analysis of concentration response curves. Ki values are then calculated from IC50 values using the Cheng-Prusoff equation using a previously determined […] of 8 μM for the QSY7-APP^swe-Eu substrate at BACE1.

[2] = molecular target: purified human autoBACE-2 (Homo sapiens (Human), UniProt Q9Y5Z0); test: BACE-2 Assay (BACE-HTRF assay); format: biochemical; conditions: Ki calculated from IC50 using the Cheng-Prusoff equation; QSY7-EISEVNLDAEFC-Eu-amide substrate, pH 5.0
purified human autoBACE-2, sequence (Q9Y5Z0 63-473 limits assumed): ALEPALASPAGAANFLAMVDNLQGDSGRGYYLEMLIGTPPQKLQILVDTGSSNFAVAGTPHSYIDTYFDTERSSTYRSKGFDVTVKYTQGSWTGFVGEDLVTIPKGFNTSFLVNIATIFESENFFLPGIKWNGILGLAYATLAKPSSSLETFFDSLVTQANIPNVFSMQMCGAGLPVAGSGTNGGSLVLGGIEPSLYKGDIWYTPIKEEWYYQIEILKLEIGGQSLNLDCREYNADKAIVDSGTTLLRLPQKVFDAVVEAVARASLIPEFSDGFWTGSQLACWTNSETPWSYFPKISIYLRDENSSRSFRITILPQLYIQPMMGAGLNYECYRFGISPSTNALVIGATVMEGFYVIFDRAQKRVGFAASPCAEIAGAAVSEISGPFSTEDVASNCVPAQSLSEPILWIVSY
Experimental: Inhibitor IC50s at purified human autoBACE-2 are determined in a time-resolved endpoint proteolysis assay that measures hydrolysis of the QSY7-[…]-Eu-amide FRET peptide substrate (BACE-HTRF assay). […] DMSO is present at 5% final concentration in the assay. Following laser excitation of sample wells at 320 nm, the fluorescence signal at 620 nm is collected for 400 ms following a 50 μs delay on a RUBYstar HTRF plate reader (BMG Labtechnologies). Raw RFU data is normalized to maximum (1.0 nM BACE/DMSO) and minimum (no enzyme/DMSO) RFU values. […] The Ki values are calculated from the IC50 using the Cheng-Prusoff equation.

Recombinant human soluble BACE1 catalytic domain, sequence (P56817 75-416): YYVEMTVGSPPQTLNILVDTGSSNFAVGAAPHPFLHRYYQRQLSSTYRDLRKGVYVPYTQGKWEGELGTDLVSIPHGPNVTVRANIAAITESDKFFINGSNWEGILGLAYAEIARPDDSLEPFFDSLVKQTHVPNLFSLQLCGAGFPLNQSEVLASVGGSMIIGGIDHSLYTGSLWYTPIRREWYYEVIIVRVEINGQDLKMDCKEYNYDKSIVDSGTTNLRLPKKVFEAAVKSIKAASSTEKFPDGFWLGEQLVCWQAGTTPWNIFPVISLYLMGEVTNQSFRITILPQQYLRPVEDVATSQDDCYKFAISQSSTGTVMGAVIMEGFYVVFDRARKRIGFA

Row | Structure (SMILES) | Ki [1] | Ki [2]
1 | CN1C(=N)N[C@@]2(c3cc(OCC4CC4)ccc3F)CO[C@@H](C3CC3)C[C@H]2C1=O [Example 24, (4aR,6R,8aS)-6-cyclopropyl-8a-(5-(cyclopropylmethoxy)-2-fluorophenyl)-2-imino-3-methylhexahydro-1H-pyrano[3,4-d]pyrimidin-4(4aH)-one] | 11 nM | 10 nM
2 | CN1C(=N)N[C@@]2(c3cc(Oc4cccc(C#N)c4)ccc3F)CO[C@@H](C3CC3)C[C@H]2C1=O [Example 25, 3-(3-((4aR,6R,8aS)-6-cyclopropyl-2-imino-3-methyl-4-oxohexahydro-1H-pyrano[3,4-d]pyrimidin-8a(8H)-yl)-4-fluorophenoxy)benzonitrile] | 27 nM | 46 nM
3 | C[C@H]1C[C@H]2C(=O)N(C)C(=N)N[C@@]2(c2cc(OCC34CC(C#N)(C3)C4)ccc2F)CO1 [Example 26, 3-((4-fluoro-3-((4aR,6S,8aS)-2-imino-3,6-dimethyl-4-oxohexahydro-1H-pyrano[3,4-d]pyrimidin-8a(8H)-yl)phenoxy)methyl)bicyclo[1.1.1]pentane-1-carbonitrile] | 8 nM | 98 nM
4 | CN1C(=N)N[C@@]2(c3cc(Oc4cncc(C#N)c4)ccc3F)CO[C@@H](C3CC3)C[C@H]2C1=O [Example 27, 5-(3-((4aR,6R,8aS)-6-cyclopropyl-2-imino-3-methyl-4-oxohexahydro-1H-pyrano[3,4-d]pyrimidin-8a(8H)-yl)-4-fluorophenoxy)nicotinonitrile] | 10 nM | 51 nM
5 | CN1C(=N)N[C@@]2(c3cc(-c4cncnc4)ccc3F)CO[C@@H](C3CC3)C[C@H]2C1=O [Example 28, (4aR,6R,8aS)-6-cyclopropyl-8a-(2-fluoro-5-(pyrimidin-5-yl)phenyl)-2-imino-3-methylhexahydro-1H-pyrano[3,4-d]pyrimidin-4(4aH)-one] | 136 nM | 627 nM
6 | CN1C(=N)N[C@@]2(c3cc(Oc4cncc(C(F)F)n4)ccc3F)CO[C@@H](C3CC3)C[C@H]2C1=O [Example 29, (4aR,6R,8aS)-6-cyclopropyl-8a-(5-((6-(difluoromethyl)pyrazin-2-yl)oxy)-2-fluorophenyl)-2-imino-3-methylhexahydro-1H-pyrano[3,4-d]pyrimidin-4(4aH)-one] | 16 nM | 54 nM
7 | COC[C@H]1C[C@H]2C(=O)N(C)C(=N)N[C@@]2(c2cc(Oc3cc(C#N)ccn3)ccc2F)CO1 [Example 30, 2-(4-fluoro-3-((4aR,6R,8aS)-2-imino-6-(methoxymethyl)-3-methyl-4-oxohexahydro-1H-pyrano[3,4-d]pyrimidin-8a(8H)-yl)phenoxy)isonicotinonitrile] | 3 nM | 25 nM
8 | COC[C@H]1C[C@H]2C(=O)N(C)C(=N)N[C@@]2(c2cc(Oc3ncccc3F)ccc2F)CO1 [Example 31, (4aR,6R,8aS)-8a-(2-fluoro-5-((3-fluoropyridin-2-yl)oxy)phenyl)-2-imino-6-(methoxymethyl)-3-methylhexahydro-1H-pyrano[3,4-d]pyrimidin-4(4aH)-one] | 4 nM | 8 nM
9 | COC[C@H]1C[C@H]2C(=O)N(C)C(=N)N[C@@]2(c2cc(OCC3CC3)ccc2F)CO1 [Example 32, (4aR,6R,8aS)-8a-(5-(cyclopropylmethoxy)-2-fluorophenyl)-2-imino-6-(methoxymethyl)-3-methylhexahydro-1H-pyrano[3,4-d]pyrimidin-4(4aH)-one] | 21 nM | 9 nM
10 | CN1C(=N)N[C@@]2(c3cc(Oc4cccc(-n5cccn5)n4)ccc3F)CO[C@@H](C3CC3)C[C@H]2C1=O [Example 34, (4aR,6R,8aS)-8a-(5-((6-(1H-pyrazol-1-yl)pyridin-2-yl)oxy)-2-fluorophenyl)-6-cyclopropyl-2-imino-3-methylhexahydro-1H-pyrano[3,4-d]pyrimidin-4(4aH)-one] | 2.2 nM | 13.5 nM
11 | CN1C(=N)N[C@@]2(c3cc(Oc4cccc(-c5cocn5)c4)ccc3F)CO[C@@H](C3CC3)C[C@H]2C1=O [Example 35] | 13 nM | 86 nM
